Biological target: T1, human Bradykinin B1 receptor (Homo sapiens, UniProt P46663)
T1 construct: host or cells: CHO-K1
T1 sequence (P46663 1-353): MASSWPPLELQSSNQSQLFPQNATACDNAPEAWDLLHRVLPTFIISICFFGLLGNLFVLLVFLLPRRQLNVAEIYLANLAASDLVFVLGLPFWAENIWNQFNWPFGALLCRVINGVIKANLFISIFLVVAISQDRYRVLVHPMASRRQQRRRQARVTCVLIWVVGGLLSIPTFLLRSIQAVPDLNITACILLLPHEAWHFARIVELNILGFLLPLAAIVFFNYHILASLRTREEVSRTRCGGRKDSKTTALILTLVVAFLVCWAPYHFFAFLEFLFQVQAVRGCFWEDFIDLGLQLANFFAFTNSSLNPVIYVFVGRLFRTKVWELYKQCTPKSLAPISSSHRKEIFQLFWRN
Test: Calcium flux assay (FLIPR), CHO-K1 cells expressing human Bradykinin B1 receptor, absence of 0.1% BSA (hB1 free IC50)
Format: cell-based
Settings: absence of 0.1% BSA in assay buffer
Experimental: The potency to inhibit the Bradykinin B1 receptor was determined for the Compound Examples of this invention in a cell-based fluorescent calcium-mobilisation assay. The assay measures the ability of Compound Examples to inhibit Bradykinin B1 receptor agonist-induced increase of intracellular free Ca^2+ in the cell line expressing Bradykinin B1 receptor. Specifically, calcium indicator-loaded cells are pre-incubated in the absence or presence of different concentrations of Compound Examples followed by the stimulation with a selective Bradykinin B1 receptor agonist peptide. The change of the intracellular Ca^2+ concentration is monitored with a fluorescent plate reader FLIPR^TETRA® (Molecular Devices).
Calcium Flux Assays (FLIPR) with Cells Expressing Human Bradykinin B1 Receptor (hB1)
CHO-K1 cell line expressing human Bradykinin B1 receptor is purchased from Euroscreen (Gosselies, Belgium, with reference name hB1-D1). The cells are grown in Nutrient Mixture Ham's F12 (Sigma) containing 10% Foetal bovine serum (Sigma) and 400 μg/mL G418 (Sigma), 5 μg/mL puromycin (Sigma).
The effect of BSA on the potency of endothelin receptor antagonists have been described in the prior art (Wu-Wong, J. R. et al. (1997), JPET 281: 791-798). The teaching can be applied in analogy to testing the potency of Bradykinin B1 receptor antagonist in the FLIPR assays.
For the calcium flux assay, 80% confluent cells are detached from the culture vessels with Versene (Gibco), and seeded into 384-well plates (Cell binding Surface; Corning, NY; #3683) at a density of 15,000 cells per well. Cells are seeded in a volume of 50 μL in medium without antibiotics and incubated overnight in a humidified atmosphere with 5% CO2 at 37° C. […] The calcium indicator loaded cells are incubated at 37° C. for 2 hrs. Extracellular dye is then removed and each well is filled with 45 μL of assay buffer. Cell plates are kept in dark until used. Compound examples are assayed at 8 concentrations in triplicate. Serial 10-fold dilutions in 100% DMSO are made at a 100-times higher concentration than the final concentration, and then diluted 1:10 in assay buffer. 5 μL of each diluted compound is added to the well of cell plates (yielding final concentration with 1% DMSO), and incubated for 30 min at 28° C. before the addition of Bradykinin B1 receptor agonist on the FLIPR instrument.
The addition of agonist 20 μl per well to the assay plate is carried out on the FLIPR instrument while continuously monitoring Ca2+-dependent fluorescence at 538 nm. A peptide antagonist Lys-(Des-Arg-Leu)-Bradykinin (Bachem, Brackley) at 20 µM is used to determine the full inhibition as control.
Peak fluorescence is used to determine the response to agonist obtained at each concentration of Compound Examples by the following equation: % Response=100*(RFU(compound)−RFU(control))/(RFU(DMSO)−RFU(control))
RFU means relative fluorescence units.
Control means full inhibition by the peptide antagonist Lys-(Des-Arg-Leu)-Bradykinin at 20 µM.
The response values are plotted against the logarithm of the compound concentrations. The Compound Examples are tested in triplicates per plate and mean values are plotted in Excel XLfit to determine IC50 values, percentage of maximal inhibition and the Hill slopes.

| SMILES | IC50 |
| --- | --- |
| CC(C)(C)c1cn(-c2c(F)cc(NC(=O)C3(c4ccc(C(F)(F)F)cc4F)CC3)cc2C(=O)O)cn1 [Example 90, 2-(4-tert-Butyl-1H-imidazol-1-yl)-3-fluoro-5-[({1-[2-fluoro-4-(trifluoromethyl)phenyl]cyclopropyl}carbonyl)amino]benzoic acid] | 24 nM |
| CC(C)Cn1cc(-c2c(F)cc(NC(=O)C3(c4ccc(C(F)(F)F)cc4F)CC3)cc2C(=O)O)cn1 [Example 92, 3-Fluoro-5-[({1-[2-fluoro-4-(trifluoromethyl)phenyl]cyclopropyl}carbonyl)amino]-2-(1-isobutyl-1H-pyrazol-4-yl)benzoic acid] | 29 nM |
| CC(C)(C)n1cc(-c2c(F)cc(NC(=O)C3(c4ccc(C(F)(F)F)cc4F)CC3)cc2C(=O)O)cn1 [Example 93, 2-(1-tert-Butyl-1H-pyrazol-4-yl)-3-fluoro-5-[({1-[2-fluoro-4-(trifluoromethyl)phenyl]cyclopropyl}carbonyl)amino]benzoic acid] | 61 nM |
| O=C(O)c1cc(NC(=O)C2(c3ccc(C(F)(F)F)cc3F)CC2)cc(F)c1-c1ccc(C(F)F)nc1 [Example 94, 2-[6-(Difluoromethyl)pyridin-3-yl]-3-fluoro-5-[({1-[2-fluoro-4-(trifluoromethyl)phenyl]cyclopropyl}carbonyl)amino]benzoic acid] | 20 nM |
| O=C(O)c1c(-c2cnn(C3CCC3)c2)ccc(NC(=O)C2(c3ccc(C(F)(F)F)cc3F)CC2)c1F [Example 98, 6-(1-Cyclobutyl-1H-pyrazol-4-yl)-2-fluoro-3-[({1-[2-fluoro-4-(trifluoromethyl)phenyl]cyclopropyl}carbonyl)amino]benzoic acid] | 2700 nM |
| O=C(O)c1c(-c2cnn(C3CCC3)c2)ccc(NC(=O)C2(c3ccc(OC(F)(F)F)cc3F)CC2)c1F [Example 99, 6-(1-Cyclobutyl-1H-pyrazol-4-yl)-2-fluoro-3-[({1-[2-fluoro-4-(trifluoromethoxy)phenyl]cyclopropyl}carbonyl)amino]benzoic acid] | 2000 nM |
| O=C(O)c1cc(NC(=O)C2(c3ccc(C(F)(F)F)cc3F)CC2)cc(Cl)c1-c1ccc(C(F)F)nc1 [Example 102, 3-Chloro-2-[6-(difluoromethyl)pyridin-3-yl]-5-[({1-[2-fluoro-4-(trifluoromethyl)phenyl]cyclopropyl}carbonyl)amino]benzoic acid] | 110 nM |
| O=C(O)c1cc(NC(=O)C2(c3ccc(OC(F)(F)F)cc3F)CC2)cc(Cl)c1-c1ccc(C(F)F)nc1 [Example 103, 3-Chloro-2-[6-(difluoromethyl)pyridin-3-yl]-5-[({1-[2-fluoro-4-(trifluoromethoxy)phenyl]cyclopropyl}carbonyl)amino]benzoic acid] | 62 nM |
| O=C(O)c1cc(NC(=O)C2(c3ccc(C(F)(F)F)cc3F)CC2)cc(Cl)c1-c1ccc(C(F)(F)F)nc1 [Example 104, 3-Chloro-5-[({1-[2-fluoro-4-(trifluoromethyl)phenyl]cyclopropyl}carbonyl)amino]-2-[6-(trifluoromethyl)pyridin-3-yl]benzoic acid] | 130 nM |
| Cc1cc(NC(=O)C2(c3ccc(C(F)(F)F)cc3F)CC2)cc(C(=O)O)c1-c1ccc(C(F)F)nc1 [Example 109, 2-[6-(Difluoromethyl)pyridin-3-yl]-5-[({1-[2-fluoro-4-(trifluoromethyl)phenyl]cyclopropyl}carbonyl)amino]-3-methylbenzoic acid] | 770 nM |
| Cc1cc(NC(=O)C2(c3ccc(OC(F)(F)F)cc3F)CC2)cc(C(=O)O)c1-c1ccc(C(F)F)nc1 [Example 110, 2-[6-(Difluoromethyl)pyridin-3-yl]-5-[({1-[2-fluoro-4-(trifluoromethoxy)phenyl]cyclopropyl}carbonyl)amino]-3-methylbenzoic acid] | 580 nM |
| Cc1cc(NC(=O)C2(c3ccc(C(F)(F)F)cc3F)CC2)cc(C(=O)O)c1-c1ccc(C(F)(F)F)nc1 [Example 111, 5-[({1-[2-Fluoro-4-(trifluoromethyl)phenyl]cyclopropyl}carbonyl)amino]-3-methyl-2-[6-(trifluoromethyl)pyridin-3-yl]benzoic acid] | 2400 nM |
| CCC(F)(F)c1ccc(-c2c(C)cc(NC(=O)C3(c4ccc(C(F)(F)F)cc4F)CC3)cc2C(=O)O)cn1 [Example 112, 2-[6-(1,1-Difluoropropyl)pyridin-3-yl]-5-[({1-[2-fluoro-4-(trifluoromethyl)phenyl]cyclopropyl}carbonyl)amino]-3-methylbenzoic acid] | 240 nM |
| CCC(F)(F)c1ccc(-c2c(C)cc(NC(=O)C3(c4ccc(OC(F)(F)F)cc4F)CC3)cc2C(=O)O)cn1 [Example 113, 2-[6-(1,1-Difluoropropyl)pyridin-3-yl]-5-[({1-[2-fluoro-4-(trifluoromethoxy)phenyl]cyclopropyl}carbonyl)amino]-3-methylbenzoic acid] | 120 nM |
| CCCn1cc(-c2ccc(NC(=O)C3(c4ccc(C(F)(F)F)cc4F)CC3)cc2C(=O)O)cn1 [Example 114, 5-[({1-[2-Fluoro-4-(trifluoromethyl)phenyl]cyclopropyl}carbonyl)amino]-2-(1-propyl-1H-pyrazol-4-yl)benzoic acid] | 85 nM |
| CCCn1cc(-c2ccc(NC(=O)C3(c4ccc(OC(F)(F)F)cc4F)CC3)cc2C(=O)O)cn1 [Example 115, 5-[({1-[2-Fluoro-4-(trifluoromethoxy)phenyl]cyclopropyl}carbonyl)amino]-2-(1-propyl-1H-pyrazol-4-yl)benzoic acid] | 120 nM |
| CC(C)Cn1cc(-c2ccc(NC(=O)C3(c4ccc(F)cc4F)CC3)cc2C(=O)O)cn1 [Example 116, 5-({[1-(2,4-Difluorophenyl)cyclopropyl]carbonyl}amino)-2-(1-isobutyl-1H-pyrazol-4-yl)benzoic acid] | 210 nM |
| CC(C)Cn1cc(-c2ccc(NC(=O)C3(c4ccc(Cl)cc4F)CC3)cc2C(=O)O)cn1 [Example 117, 5-({[1-(4-Chloro-2-fluorophenyl)cyclopropyl]carbonyl}amino)-2-(1-isobutyl-1H-pyrazol-4-yl)benzoic acid] | 56 nM |
| Cc1ccc(C2(C(=O)Nc3ccc(-c4cnn(CC(C)C)c4)c(C(=O)O)c3)CC2)c(F)c1 [Example 118, 5-({[1-(2-Fluoro-4-methylphenyl)cyclopropyl]carbonyl}amino)-2-(1-isobutyl-1H-pyrazol-4-yl)benzoic acid] | 130 nM |
| O=C(O)c1cc(NC(=O)C2(c3ccc(C(F)(F)F)cc3F)CC2)ccc1-c1cnn(CC2CCC2)c1 [Example 119, 2-[1-(Cyclobutylmethyl)-1H-pyrazol-4-yl]-5-[({1-[2-fluoro-4-(trifluoromethyl)phenyl]cyclopropyl}carbonyl)amino]benzoic acid] | 25 nM |
| O=C(O)c1cc(NC(=O)C2(c3ccc(OC(F)(F)F)cc3F)CC2)ccc1-c1cnn(CC2CCC2)c1 [Example 120, 2-[1-(Cyclobutylmethyl)-1H-pyrazol-4-yl]-5-[({1-[2-fluoro-4-(trifluoromethoxy)phenyl]cyclopropyl}carbonyl)amino]benzoic acid] | 17 nM |
| O=C(O)c1cc(NC(=O)C2(c3ccc(C(F)(F)F)cc3F)CC2)ccc1-c1cnn(C2CCCC2)c1 [Example 121, 2-(1-Cyclopentyl-1H-pyrazol-4-yl)-5-[({1-[2-fluoro-4-(trifluoromethyl)phenyl]cyclopropyl}carbonyl)amino]benzoic acid] | 18 nM |

Reference: patent publication US12023319B2, “Carboxylic acid aromatic amides” (priority 2016, dated 2024)
